The values that follow come from patent US20120301551A1, “COMPOUNDS AND COMPOSITIONS FOR TREATING NEURONAL DEATH OR NEUROLOGICAL DYSFUNCTION” (Neurotech Pharmaceuticals Co., Ltd., priority 2005, published 2012).

The subject of experiment [1] is neuron-rich cortical cell cultures. Briefly: serum deprivation-induced neuronal cell apoptosis. The format is cell-based, mouse. Conditions: 24 hr; 5 mM Li^+, 100 μM zVADfmk, 1 μM 2-hydroxy TTBA. As to the method: (§1) (B) Neuron-rich cortical cell cultures (DIV 7) were deprived of serum, alone or with addition of 100 μM zVADfmk, 1 μM 2-hydroxy TTBA, or 5 mM Li^+. Neuronal death was analyzed 24 hr later by counting viable neurons excluding trypan (mean±SEM, n=4). *, Significant difference from the relevant control (serum deprivation alone), p<0.05 using ANOVA and Student-Neuman-Keuls test. (C) Western blot analysis of FADD antibody following immunoprecipitation with Fas antibody in the same samples above.
(§2) Additional experiments were performed to examine if targeting both neuronal cell necrosis and apoptosis would result in synergic neuroprotection in […] transgenic mice. […] Neuronal cell apoptosis was induced by serum deprivation in neuron-rich cortical cell cultures as reported, which was prevented by addition of 5 mM Li^+ as well as zVADfmk, a broad spectrum inhibitor of caspases (FIG. 5B). […] Additional experiments were performed to examine if Li^+ would prevent Fas signaling pathway. […] This implies that 2-Hydroxy-TTBA and Li^+ blocks oxidative neuronal cell necrosis and apoptosis, respectively.

Experiment [2] concerns mixed cortical cell cultures containing neurons and glia. Briefly: Fe2+-induced free radical neurotoxicity in mixed cortical cell cultures (LDH release). The format is cell-based, mouse. As to the method: (§3) Mouse cortical cell cultures (DIV 11-15) were exposed to 50 μM Fe^2+ or 10 mM BSO, alone or with inclusion of 5 mM Li^+. Neuronal death was analyzed 24 hr later by measuring levels of LDH released into the bathing medium, mean±SEM (n=9-12 culture wells per condition).
Mouse cortical cell cultures (DIV 11-15) were exposed to 30 μM Fe^2+ or 10 mM BSO, alone or in the presence of 1 μM 2-hydroxy TTBA, 10-100 μM vitamin E, or 5 mM Li^+.
For mixed neuron-glia culture, mouse cerebral cortices were removed from brains of the 11-15 day-old-fetal mice (E11-15), gently triturated and plated on 24 well plates (2×10^5 cells/plate) precoated with 100 μg/ml poly-D-lysine and 4 pg/ml laminin. Cultures were maintained at 37° C. in a humidified 5% CO2 atmosphere.
After 7-8 days in vitro (DIV 7-8), 10 μM cytosine arabinofuranoside (Ara-C) was included to halt overgrowth of glia. The drug treatment was carried on DIV 11-15 cortical cell culture.
Oxidative stress was induced by exposing mixed cortical cell cultures containing neurons and glia (DIV 11-15) to 50 μM FeCl2, a hydroxyl radical-producing transition metal via a Fenton reaction, or 10 mM DL-buthionine-[S,R]-sulfoximine (BSO), a glutathione depleting agent.
For orientation: LDH in the medium is a marker of cell lysis.

Experiment [3] deals with Fas-FADD interaction. Briefly: Fas-FADD interaction in serum-deprived neuron-rich cultures (immunoprecipitation, Western blot). Format: cell-based, mouse. Conditions: deprived of serum for 8 hr. As to the method: as §1, §2
(A western blot detects proteins with antibodies after separation by electrophoresis.)

Experiment [4] concerns mixed cortical cell cultures containing neurons and glia. Description: BSO-induced free radical neurotoxicity in mixed cortical cell cultures (LDH release). Format: cell-based, mouse. As to the method: Mouse cortical cell cultures (DIV 11-15) were exposed to 10 mM BSO, alone or with indicated doses of 2-Hydroxy-TTBA or 2-Hydroxy-TPEA. Neuronal death was analyzed 24 hr later by measuring levels of LDH released into the bathing medium, mean±SEM (n=9-12 culture wells per condition). *, Significant difference from BSO alone, p<0.05 using ANOVA and Student-Newman-Keuls test.
as §3
Mouse cortical cell cultures (DIV 11-15) were exposed to 30 μM Fe^2+ or 10 mM BSO, alone or in the presence of 1 μM 2-hydroxy TTBA, 10-100 μM vitamin E, or 5 mM Li^+. Neuronal death was analyzed 24 h later by measuring LDH efflux in the bathing media (mean±SEM, n=12). *, Significant difference from the relevant control (Fe^2+ or BSO alone), p<0.05 using ANOVA and Student-Newman-Keuls test.
For mixed neuron-glia culture, mouse cerebral cortices were removed from brains of the 11-15 day-old-fetal mice (E11-15), gently triturated and plated on 24 well plates (2×10^5 cells/plate) precoated with 100 μg/ml poly-D-lysine and 4 pg/ml laminin. Cultures were maintained at 37° C. in a humidified 5% CO2 atmosphere. Plating media consist of Eagles minimal essential media (MEM, Earles salts, supplied glutamine-free) supplemented with 5% horse serum, 5% fetal bovine serum, 26.5 mM bicarbonate, 2 mM glutamine, and 21 mM glucose.
After 7-8 days in vitro (DIV 7-8), 10 μM cytosine arabinofuranoside (Ara-C) was included to halt overgrowth of glia. The drug treatment was carried on DIV 11-15 cortical cell culture. Overall neuronal cell injury was assessed by measuring amount of lactate dehydrogenase (LDH) released into the bathing medium 24 hr after neurotoxic insults as previously described (Koh and Choi, J Neurosci Methods 20:83-90, 1987).
Oxidative stress was induced by exposing mixed cortical cell cultures containing neurons and glia (DIV 11-15) to 50 μM FeCl2, a hydroxyl radical-producing transition metal via a Fenton reaction, or 10 mM DL-buthionine-[S,R]-sulfoximine (BSO), a glutathione depleting agent. Widespread neuronal death was observed 24 hours later. […] Administration of vitamin E prevented Fe^2+-induced free radical neurotoxicity at higher doses. This implies that 2-Hydroxy-TTBA or 2-Hydroxy-TPEA is a potent neuroprotectant against oxidative stress.

For experiment [5], the system named is Fas, FADD, cleaved caspase-8 and caspase-3. Description: Fas pathway in lumbar spinal cord of G93A transgenic mice (Western blot). The note with it: at 12 weeks of age; 2-hydroxy-TTBA 30 mg/kg/d, Li^+ 200 mg/kg/d in the diet.
Method: G93A transgenic mice received oral administration of 2-hydroxy-TTBA (30 mg/kg/d) in the diet from 8 weeks of age.
Experiment [6] concerns cortical cell cultures containing neurons and glia. Briefly: cyclosporine A or calyculin A-induced neuronal cell apoptosis in cortical cell cultures. Format: cell-based, mouse. Conditions: 20 μM cyclosporine A or 10 nM calyculin A, 24 hr; Li^+ at doses of 3-30 mM. As to the method:
Mouse cortical cell cultures (DIV 10-12) were exposed to 20 μM cyclosporine A or 10 nM calculin A, alone or with inclusion of 0.3-30 mM Li. Neuronal death was analyzed 24-28 hr later by measuring levels of LDH released into the bathing medium, mean±SEM (n=9-12 culture wells per condition).
Mouse cortical cell cultures (DIV 10-12) were exposed to 20 μM cyclosporine A, alone or with 100 μM Vitamin E, 1 μM 2-hydroxy-TTBA, or 1 μM 2-hydroxy-TPEA. Neuronal death was analyzed 24 hr later by measuring levels of LDH released into the bathing medium, mean±SEM (n=9-12 culture wells per condition).
Cortical cell cultures containing neurons and glia at 10-12 days in vitro (DIV 10-12) were exposed to 20 μM cyclosporine A (CsA) or 10 nM caliculin A (cal A). Neurons underwent widespread apoptosis 24 hr later as previously reported (McDonald et al., 1996; Ko et al., 2000). […] This implies that Li^+ and the neuroprotective drugs (vitamin E, trolox, BAS, CBAS, FBAS, TBAS, PBAS, MBAS, NPAA, NPPAA, 2-Hydroxy-TTBA, and 2-Hydroxy-TPEA) selectively prevent neuronal cell apoptosis and free radical-mediated necrosis, respectively.

Experiment [7] has as its system G93A transgenic mice. Format: in vivo, mouse. As to the method: Animals were daily fed with 2-hydroxy TTBA (30 mg/kg/d), 0.2% lithium carbonate (200 mg/kg/d, Li), or a combination of both (2-hydroxy TTBA+Li) from 8 weeks of age in diet.
Animals were daily fed with 2-hydroxy TTBA (30 mg/kg/d), 0.2% lithium carbonate (Li), or a combination of both (2-hydroxy TTBA+Li) from 8 weeks of age in diet.
C & D: (C) Bright-field photomicrographs of cresyl violet-stained ventral horn sections from the wild type (a), or G93AA transgenic mice treated with vehicle (b), or with a combination of 2-hydroxy TTBA+Li (c) at 16 weeks of age.

Experiment [8] deals with APPswe/PS1deltaE9 double transgenic mice. Briefly: Morris water maze in APPswe/PS1deltaE9 double transgenic mice. Conditions: 25 mg/kg/day chemical 01 or 62.5 mg/kg/day ibuprofen for 14.5 months (3~17.5 months). Format: in vivo, mouse. The method, then:
After administration of 14.5 months, the cognitive function was analyzed by Morris water maze test like example 10-3-1 (mean±SEM, n=3-5).
(§4) 17.5 month-old APPswe/PS1deltaE9 double transgenic mice were fed chow alone (saline only), or containing 25 mg/kg/day of chemical—01, for […] (3˜17.5 month).
The cognitive function was analyzed by Morris water maze test. Mice ware trained to perform a hidden platform task in the Morris water maze. The latency to find the platform was recorded for each mouse.

Experiment [9] has the same test system. Description: open field activity in APPswe/PS1deltaE9 double transgenic mice. Format: in vivo, mouse. Conditions: 25 mg/kg/day chemical 01 or 62.5 mg/kg/day ibuprofen for 14.5 months (3~17.5 months). The method, then: After administration of drug for 14.5 months, Open field activity test was performed to evaluate locomotor activity and exploratory behavior. 4×4 of scale marks were drawn in white acryl box having a size of 60 cm×60 cm×35 cm (width×length×height) to make sixteen squares. Four squares in the center became center zone and twelve squares around the center zone became peripary zone. Mice were laid into transparent acryl tube (diameter: about 3.5 inches) laid at the left corner of the acryl box for 30 seconds. After 30 seconds, acryl tube was removed to make mouse free. Experiment was once performed for each mouse for 5 minutes. The distance traveled in the open field was recorded (mean±SEM, n=3-5).
as §4
Open field activity was used to evaluate locomotor activity and exploratory behavior. The distance traveled in the open field was recorded and performance was analyzed after the testing took place.

Experiment [10] has the same test system. Description: brain Aβ40/Aβ42 levels in APPswe/PS1deltaE9 double transgenic mice (ELISA). Conditions: 25 mg/kg/d chemical 01 or 62.5 mg/kg/day ibuprofen for 14.5 months. Format: in vivo, mouse. As to the method: SDS-soluble/insoluble Aβ40 or Aβ42 levels were analyzed by colorimetric sandwich ELISA kit (BIOSOURCE, Camarillo, Calif.).
Setting [11] is: 2-hydroxy TTBA 30 mg/kg/d, 0.2% lithium carbonate, or both, in diet from 8 weeks of age, n=13.

“And” between values parts separate entries of the source, which are not always exact repeats. Identical values can stand only once. “Also recorded” adds a separate entry of the source.

On to `[Li+]` [Li^+, lithium ion, reference compound], for which the “serum deprivation-induced neuronal cell apoptosis, effect in words” value in experiment [1] is given as “prevented; also recorded: prevents apoptosis”. The “Fe^2+-induced free radical neurotoxicity, effect in words” value in experiment [2] (50 μM Fe^2+, 24 hr, 2-Hydroxy-TTBA or 2-Hydroxy-TPEA at doses as low as 0.3 μM, vitamin E at higher doses, Li^+ 10 mM (legend 5 mM)) is on record as “did not attenuate; also recorded: does not attenuate”. Further, the “Fe^2+-induced neuronal death (oxidative stress), effect in words” value in experiment [2] (FIG. 5A: 30 μM Fe^2+, 24 h, 1 μM 2-hydroxy TTBA (submicromolar), 5 mM Li^+) was “not attenuated and not”. Further, the “Fas-FADD interaction, effect in words” value in experiment [3] is listed as “blocked”. In addition, the “BSO-induced free radical neurotoxicity, effect in words” value in experiment [4] (10 mM BSO, 24 hr, 2-Hydroxy-TTBA or 2-Hydroxy-TPEA at doses as low as 0.3 μM, Li^+ 10 mM (legend 5 mM)) was “did not attenuate; also recorded: does not attenuate”. In addition, the “BSO-induced neuronal death (oxidative stress), effect in words” value in experiment [4] (FIG. 5A: 10 mM BSO, 24 h, 1 μM 2-hydroxy TTBA (submicromolar), 5 mM Li^+) is “not attenuated and not”. Moreover, the “levels of Fas, FADD, cleaved caspase-8 and caspase-3 (Fas pathway) in lumbar spinal cord” value in [5] was “completely blocked”. In addition, the “neuronal cell apoptosis, effect in words” value in experiment [6] is reported as “dose-dependently attenuated”. Besides, in experiment [7] (setting [11]), the “Mortality (survival)” value was 137.2 days and 137.2^a ± 2.20 days; the “Onset from PaGE” value was 113.3 days and 113.3^a ± 2.28 days; the “Onset from Rotarod” value is 114.7 days and 114.7^a ± 2.23 days. In addition, the “weight loss, % of the wild type” value in experiment [7] (G93A mice at 18 weeks of age, oral administration in diet) was 53%. Besides, the “extension reflex, motor strength, and coordination” value in experiment [7] (G93A mice, drug in diet) is “improved”. Further, the “degeneration (loss) of ventral motor neurons in lumbar spinal cord” value in [7] (at 16 weeks of age) turned out to be 58%. Besides, in experiment [7] (from 11 weeks to 18 weeks, in the diet), the “motor performance versus vehicle-treated control” value is listed as “better motor performance”.
Take `CC(C)Cc1ccc(C(C)C(=O)O)cc1` (stereo not drawn) [ibuprofen, reference compound]: the “escape latency / cognitive function (Morris water maze)” value in [8] is reported as “did not improved cognitive function”. In [9], the “open field activity (distance traveled)” value is listed as “non-significant trend”. For the same compound, the “SDS-soluble/insoluble Aβ40 or Aβ42 levels, in words” value in experiment [10] was “did not reduce”.
